# Experimental data from article PMC7943464, “Dim Red Light During Scotophase Enhances Mating of a Moth Through Increased Male Antennal Sensitivity Against the Female Sex Pheromone” (Frontiers in Genetics, 2021).
# Target: T1, CpunOBP2 (Conogethes punctiferalis, UniProt A0A0C4K8H3)
# T1 construct: gene OBP2; pET-32a(+) in E. coli BL21(DE3); Ni-IDA purified; tags removed by enterokinase
# T1 sequence (A0A0C4K8H3 23-151): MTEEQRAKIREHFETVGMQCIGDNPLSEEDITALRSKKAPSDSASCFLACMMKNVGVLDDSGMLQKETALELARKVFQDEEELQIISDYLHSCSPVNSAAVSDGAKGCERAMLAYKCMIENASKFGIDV
# Test: competitive 1-NPN fluorescence displacement
# Format: binding
# Excerpt: competitive 1-NPN fluorescence displacement on CpunOBP2
IC50 [µM],Ki [µM],SMILES
9.55 ± 4.58,8.48 ± 4.06,"CCCCC/C=C/CCCCCCCCC=O [E10-16∶Ald, (E)-10-hexadecenal]"
4.14 ± 2.63,3.68 ± 2.33,"CC/C=C\C/C=C\C/C=C\CCCCCCCCCCCCC [Z3, Z6, Z9-23∶HC, (Z3, Z6, Z9)-tricosatriene]"
7.73 ± 2.82,6.86 ± 2.5,"CCCCC/C=C\CCCCCCCCC=O [Z10-16∶Ald, (Z)-10-hexadecenal]"
